Reference: patent US11447481B2, “Microbiocidal oxadiazole derivatives” (SYNGENTA PARTICIPATIONS AG, priority 2017, dated 2022)

What was measured:
[1] = tested on: Glomerella lagenarium (Colletotrichum lagenarium); assay: Fungicidal activity against Glomerella lagenarium (Colletotrichum lagenarium) liquid culture / cucumber / preventative (anthracnose); type: cell-based; settings: Colletotrichum orbiculare, liquid culture (PDB), growth inhibition measured photometrically 3-4 days after application, compared to untreated control
Method: Mycelia fragments or conidia suspensions of a fungus prepared either freshly from liquid cultures of the fungus or from cryogenic storage, are directly mixed into nutrient broth. DMSO solutions of the test compound (max. 10 mg/ml) are diluted with 0.025% Tween20 by a factor of 50 and 10 µl of this solution is pipetted into a microtiter plate (96-well format). The nutrient broth containing the fungal spores/mycelia fragments is then added to give an end concentration of the tested compound. The test plates are incubated in the dark at 24° C. and 96% relative humidity. The inhibition of fungal growth is determined photometrically after 2 to 7 days, depending on the pathosystem, and percent antifungal activity relative to the untreated check is calculated.
Conidia of the fungus from cryogenic storage are directly mixed into nutrient broth (PDB potato dextrose broth). After placing a (DMSO) solution of test compound into a microtiter plate (96-well format), the nutrient broth containing the fungal spores is added. The test plates are incubated at 24° C. and the inhibition of growth is measured photometrically 3-4 days after application.

Phakopsora pachyrhizi = assay: Fungicidal activity against Phakopsora pachyrhizi / soybean / leaf disc preventative (Asian soybean rust); type: in vivo; settings: foliar, soybean leaf disks, compared to untreated control
Method: (§1) Leaf disks or leaf segments of various plant species are cut from plants grown in a greenhouse. The cut leaf disks or segments are placed in multiwell plates (24-well format) onto water agar. The leaf disks are sprayed with a test solution before (preventative) or after (curative) inoculation. Compounds to be tested are prepared as DMSO solutions (max. 10 mg/ml) which are diluted to the appropriate concentration with 0.025% Tween20 just before spraying. The inoculated leaf disks or segments are incubated under defined conditions (temperature, relative humidity, light, etc.) according to the respective test system. A single evaluation of disease level is carried out 3 to 14 days after inoculation, depending on the pathosystem. Percent disease control relative to the untreated check leaf disks or segments is then calculated.
Soybean leaf disks are placed on water agar in multiwell plates (24-well format) and sprayed with the formulated test compound diluted in water. One day after application leaf discs are inoculated by spraying a spore suspension on the lower leaf surface. After an incubation period in a climate cabinet of 24-36 hours in darkness at 20° C. and 75% rh leaf disc are kept at 20° C. with 12 h light/day and 75% rh. The activity of a compound is assessed as percent disease control compared to untreated when an appropriate level of disease damage appears in untreated check leaf disks (12-14 days after application).

[2] = tested on: Puccinia recondita f. sp. tritici; assay: Fungicidal activity against Puccinia recondita f. sp. tritici / wheat / leaf disc curative (brown rust); type: in vivo; settings: foliar, 24 h, wheat leaf segments, curative (applied 1 day after inoculation), compared to untreated control
Method: as §1
Wheat leaf segments cv. Kanzler are placed on agar in multiwell plates (24-well format). The leaf segments are inoculated with a spore suspension of the fungus. Plates are stored in darkness at 19° C. and 75% rh. The formulated test compound diluted in water is applied 1 day after inoculation. The leaf segments are incubated at 19° C. and 75% rh under a light regime of 12 h light/12 h darkness in a climate cabinet and the activity of a compound is assessed as percent disease control compared to untreated when an appropriate level of disease damage appears in untreated check leaf segments (6-8 days after application).

[3] = tested on: Puccinia recondita f. sp. tritici; assay: Fungicidal activity against Puccinia recondita f. sp. tritici / wheat / leaf disc preventative (brown rust); type: in vivo; settings: foliar, wheat leaf segments, preventative (inoculated 1 day after application), compared to untreated control
Method: as §1
Wheat leaf segments cv. Kanzler are placed on agar in multiwell plates (24-well format) and sprayed with the formulated test compound diluted in water. The leaf disks are inoculated with a spore suspension of the fungus 1 day after application. The inoculated leaf segments are incubated at 19° C. and 75% rh under a light regime of 12 h light/12 h darkness in a climate cabinet and the activity of a compound is assessed as percent disease control compared to untreated when an appropriate level of disease damage appears in untreated check leaf segments (7-9 days after application).

O=c1ccccn1Cc1ccc(-c2noc(C(F)(F)F)n2)c(F)c1F [Compound C-12, 1-[[2,3-difluoro-4-[5-(trifluoromethyl)-1,2,4-oxadiazol-3-yl]phenyl]methyl]pyridin-2-one]
inhibition of growth at 20 ppm [1]: ≥ 80% | pest or weed control at 200 ppm (Phakopsora pachyrhizi): ≥ 80% | pest or weed control at 200 ppm [2]: ≥ 80% | melting point: 154 to 156 °C | pest or weed control at 200 ppm [3]: ≥ 80%

Cc1cccc(=O)n1Cc1cc(F)c(-c2noc(C(F)(F)F)n2)cc1F [Compound C-15, 1-[[2,5-difiuoro-4-[5-(trifluoromethyl)-1,2,4-oxadiazol-3-yl]phenyl]methyl]-6-methyl-pyridin-2-one]
inhibition of growth at 20 ppm [1]: ≥ 80% | pest or weed control at 200 ppm (Phakopsora pachyrhizi): ≥ 80% | pest or weed control at 200 ppm [2]: ≥ 80% | pest or weed control at 200 ppm [3]: ≥ 80%

Cn1nnn(Cc2ccc(-c3noc(C(F)(F)F)n3)c(F)c2)c1=O [Compound B-5, 1-[[3-fluoro-4-[5-(trifluoromethyl)-1,2,4-oxadiazol-3-yl]phenyl]methyl]-4-methyl-tetrazol-5-one]
inhibition of growth at 20 ppm [1]: ≥ 80% | pest or weed control at 200 ppm (Phakopsora pachyrhizi): ≥ 80% | pest or weed control at 200 ppm [2]: ≥ 80% | pest or weed control at 200 ppm [3]: ≥ 80%

O=C1OCC(c2ccc(Cl)cc2Cl)=NN1Cc1ccc(-c2noc(C(F)(F)F)n2)cc1 [Compound E-1, 5-(2,4-dichlorophenyl)-3-[[4-[5-(trifluoromethyl)-1,2,4-oxadiazol-3-yl]phenyl]methyl]-6H-1,3,4-oxadiazin-2-one]
melting point: 139.5 to 140 °C

Cc1cccn(Cc2ccc(-c3noc(C(F)(F)F)n3)cc2)c1=O [Compound C-8, 3-methyl-1-[[4-[5-(trifluoromethyl)-1,2,4-oxadiazol-3-yl]phenyl]methyl]pyridin-2-one]
inhibition of growth at 20 ppm [1]: ≥ 80% | pest or weed control at 200 ppm (Phakopsora pachyrhizi): ≥ 80% | pest or weed control at 200 ppm [2]: ≥ 80% | melting point: 115 to 117 °C | pest or weed control at 200 ppm [3]: ≥ 80%

Cc1ccn(C(C)c2ccc(-c3noc(C(F)(F)F)n3)cc2)c(=O)c1 (stereo not drawn) [Compound C-1]
inhibition of growth at 20 ppm [1]: ≥ 80% | pest or weed control at 200 ppm (Phakopsora pachyrhizi): ≥ 80% | pest or weed control at 200 ppm [2]: ≥ 80% | melting point: 117 to 120 °C | pest or weed control at 200 ppm [3]: ≥ 80%

Cc1ccn(Cc2ccc(-c3noc(C(F)(F)F)n3)cc2)c(=O)c1 [Compound C-5, 4-methyl-1-[[4-[5-(trifluoromethyl)-1,2,4-oxadiazol-3-yl]phenyl]methyl]pyridin-2-one]
inhibition of growth at 20 ppm [1]: ≥ 80% | pest or weed control at 200 ppm (Phakopsora pachyrhizi): ≥ 80% | pest or weed control at 200 ppm [2]: ≥ 80% | melting point: 156 to 158 °C | pest or weed control at 200 ppm [3]: ≥ 80%

Cc1cccc(=O)n1C(C)c1ccc(-c2noc(C(F)(F)F)n2)cc1 (stereo not drawn) [Compound C-16, 6-methyl-1-[1-[4-[5-(trifluoromethyl)-1,2,4-oxadiazol-3-yl]phenyl]ethyl]pyridin-2-one]
inhibition of growth at 20 ppm [1]: ≥ 80% | pest or weed control at 200 ppm [2]: ≥ 80% | pest or weed control at 200 ppm [3]: ≥ 80%

COc1nn(Cc2ccc(-c3noc(C(F)(F)F)n3)cc2)c(=O)n1C [Compound B-4, 5-methoxy-4-methyl-2-[[4-[5-(trifluoromethyl)-1,2,4-oxadiazol-3-yl]phenyl]methyl]-1,2,4-triazol-3-one]
inhibition of growth at 20 ppm [1]: ≥ 80% | pest or weed control at 200 ppm (Phakopsora pachyrhizi): ≥ 80% | pest or weed control at 200 ppm [2]: ≥ 80% | melting point: 129 to 130.8 °C | pest or weed control at 200 ppm [3]: ≥ 80%

COc1c(-c2c(C)cc(C)cc2C)c(=O)n(Cc2ccc(-c3noc(C(F)(F)F)n3)cc2)n1C [Compound A-3, 5-methoxy-1-methyl-2-[[4-[5-(trifluoromethyl)-1,2,4-oxadiazol-3-yl]phenyl]methyl]-4-(2,4,6-trimethylphenyl)pyrazol-3-one]
inhibition of growth at 20 ppm [1]: ≥ 80% | pest or weed control at 200 ppm (Phakopsora pachyrhizi): ≥ 80%

Cc1ccn(CCc2ccc(-c3noc(C(F)(F)F)n3)cc2)c(=O)c1 [Compound C-18, 4-methyl-1-[2-[4-[5-(trifluoromethyl)-1,2,4-oxadiazol-3-yl]phenyl]ethyl]pyridin-2-one]
inhibition of growth at 20 ppm [1]: ≥ 80% | pest or weed control at 200 ppm [2]: ≥ 80% | melting point: 146 to 148 °C | pest or weed control at 200 ppm [3]: ≥ 80%

O=c1sc(-c2ccccc2)nn1Cc1ccc(-c2noc(C(F)(F)F)n2)cc1 [Compound B-2, 5-phenyl-3-[[4-[5-(trifluoromethyl)-1,2,4-oxadiazol-3-yl]phenyl]methyl]-1,3,4-thiadiazol-2-one]
inhibition of growth at 20 ppm [1]: ≥ 80% | melting point: 111.1 to 114 °C

O=c1ccn(-c2ccc(Cl)cc2)n1Cc1ccc(-c2noc(C(F)(F)F)n2)cc1 [Compound A-4, 1-(4-chlorophenyl)-2-[[4-[5-(trifluoromethyl)-1,2,4-oxadiazol-3-yl]phenyl]methyl]pyrazol-3-one]
pest or weed control at 200 ppm (Phakopsora pachyrhizi): ≥ 80% | pest or weed control at 200 ppm [3]: ≥ 80%

Cc1cc(C)n(Cc2ccc(-c3noc(C(F)(F)F)n3)cc2)c(=O)c1 [Compound C-3, 4,6-dimethyl-1-[[4-[5-(trifluoromethyl)-1,2,4-oxadiazol-3-yl]phenyl]methyl]pyridin-2-one]
pest or weed control at 200 ppm [2]: ≥ 80%

Cn1nc(Cl)n(-c2ccc(-c3noc(C(F)(F)F)n3)cc2)c1=O [Compound F-1, 5-chloro-2-methyl-4-[4-[5-(trifluoromethyl)-1,2,4-oxadiazol-3-yl]phenyl]-1,2,4-triazol-3-one]
inhibition of growth at 20 ppm [1]: ≥ 80% | melting point: 161 to 167 °C | pest or weed control at 200 ppm [3]: ≥ 80%

CC(c1ccc(-c2noc(C(F)(F)F)n2)cc1)n1nnn(C)c1=O (stereo not drawn) [Compound B-1, 1-methyl-4-[1-[4-[5-(trifluoromethyl)-1,2,4-oxadiazol-3-yl]phenyl]ethyl]tetrazol-5-one]
inhibition of growth at 20 ppm [1]: ≥ 80% | pest or weed control at 200 ppm (Phakopsora pachyrhizi): ≥ 80% | pest or weed control at 200 ppm [2]: ≥ 80% | pest or weed control at 200 ppm [3]: ≥ 80%

O=S1(=O)C=CCN1Cc1ccc(-c2noc(C(F)(F)F)n2)cc1 [Compound A-1, 2-[[4-[5-(trifluoromethyl)-1,2,4-oxadiazol-3-yl]phenyl]methyl]-3H-isothiazole 1,1-dioxide]
inhibition of growth at 20 ppm [1]: ≥ 80% | pest or weed control at 200 ppm (Phakopsora pachyrhizi): ≥ 80% | pest or weed control at 200 ppm [2]: ≥ 80% | pest or weed control at 200 ppm [3]: ≥ 80%

CC1=CC(C)C(=O)N1Cc1ccc(-c2noc(C(F)(F)F)n2)cc1 (stereo not drawn) [Compound B-7, 3,5-dimethyl-1-[[4-[5-(trifluoromethyl)-1,2,4-oxadiazol-3-yl]phenyl]methyl]-3H-pyrrol-2-one]
inhibition of growth at 20 ppm [1]: ≥ 80% | pest or weed control at 200 ppm (Phakopsora pachyrhizi): ≥ 80% | pest or weed control at 200 ppm [3]: ≥ 80%

CC(=O)n1ccc(=O)n1Cc1ccc(-c2noc(C(F)(F)F)n2)cc1 [Compound A-2, 1-acetyl-2-[[4-[5-(trifluoromethyl)-1,2,4-oxadiazol-3-yl]phenyl]methyl]pyrazol-3-one]
inhibition of growth at 20 ppm [1]: ≥ 80% | pest or weed control at 200 ppm (Phakopsora pachyrhizi): ≥ 80% | pest or weed control at 200 ppm [2]: ≥ 80% | pest or weed control at 200 ppm [3]: ≥ 80%

Cc1cccc(=O)n1Cc1cc(F)c(-c2noc(C(F)(F)F)n2)c(F)c1 [Compound C-17, 1-[[3,5-difluoro-4-[5-(trifluoromethyl)-1,2,4-oxadiazol-3-yl]phenyl]methyl]-6-methyl-pyridin-2-one]
inhibition of growth at 20 ppm [1]: ≥ 80% | pest or weed control at 200 ppm [2]: ≥ 80% | pest or weed control at 200 ppm [3]: ≥ 80%
